Converted amounts (≈) assume the structure as drawn. The source made the active and inactive calls. No cut-off for these calls is given here.
Columns and labels:
[1] = test system: Escherichia coli; assay: Stabilization of Escherichia coli DNA topoisomerase 1-DNA cleavage complex assessed as cleavage enhancement using 32P-TAACCCTGAAAGATTATGCAATGCGCTTTGGG ssDNA as substrate at 10 to 200 uM at pH 8 after 20 mins by agarose gel electrophoresis relative to control
[2] = test system: Escherichia coli; assay: Inhibition of Escherichia coli topoisomerase 4 kinetoplast DNA decatenation activity assessed as formation of monomeric circle from DNA at pH 8 after 1 hr
[3] = test system: Nucleic Acid; assay: Binding affinity to calf thymus DNA assessed as change in absorption spectra at increasing concentration at pH 8 by UV-Vis spectra analysis; format: nucleic-acid assay; settings: Bos taurus
[4] = target: T1, DNA topoisomerase 2-alpha (Homo sapiens, UniProt P11388); assay: Inhibition of human topoisomerase 2alpha-mediated relaxation of supercoiled pBR322 DNA
T1 sequence (P11388 whole entry): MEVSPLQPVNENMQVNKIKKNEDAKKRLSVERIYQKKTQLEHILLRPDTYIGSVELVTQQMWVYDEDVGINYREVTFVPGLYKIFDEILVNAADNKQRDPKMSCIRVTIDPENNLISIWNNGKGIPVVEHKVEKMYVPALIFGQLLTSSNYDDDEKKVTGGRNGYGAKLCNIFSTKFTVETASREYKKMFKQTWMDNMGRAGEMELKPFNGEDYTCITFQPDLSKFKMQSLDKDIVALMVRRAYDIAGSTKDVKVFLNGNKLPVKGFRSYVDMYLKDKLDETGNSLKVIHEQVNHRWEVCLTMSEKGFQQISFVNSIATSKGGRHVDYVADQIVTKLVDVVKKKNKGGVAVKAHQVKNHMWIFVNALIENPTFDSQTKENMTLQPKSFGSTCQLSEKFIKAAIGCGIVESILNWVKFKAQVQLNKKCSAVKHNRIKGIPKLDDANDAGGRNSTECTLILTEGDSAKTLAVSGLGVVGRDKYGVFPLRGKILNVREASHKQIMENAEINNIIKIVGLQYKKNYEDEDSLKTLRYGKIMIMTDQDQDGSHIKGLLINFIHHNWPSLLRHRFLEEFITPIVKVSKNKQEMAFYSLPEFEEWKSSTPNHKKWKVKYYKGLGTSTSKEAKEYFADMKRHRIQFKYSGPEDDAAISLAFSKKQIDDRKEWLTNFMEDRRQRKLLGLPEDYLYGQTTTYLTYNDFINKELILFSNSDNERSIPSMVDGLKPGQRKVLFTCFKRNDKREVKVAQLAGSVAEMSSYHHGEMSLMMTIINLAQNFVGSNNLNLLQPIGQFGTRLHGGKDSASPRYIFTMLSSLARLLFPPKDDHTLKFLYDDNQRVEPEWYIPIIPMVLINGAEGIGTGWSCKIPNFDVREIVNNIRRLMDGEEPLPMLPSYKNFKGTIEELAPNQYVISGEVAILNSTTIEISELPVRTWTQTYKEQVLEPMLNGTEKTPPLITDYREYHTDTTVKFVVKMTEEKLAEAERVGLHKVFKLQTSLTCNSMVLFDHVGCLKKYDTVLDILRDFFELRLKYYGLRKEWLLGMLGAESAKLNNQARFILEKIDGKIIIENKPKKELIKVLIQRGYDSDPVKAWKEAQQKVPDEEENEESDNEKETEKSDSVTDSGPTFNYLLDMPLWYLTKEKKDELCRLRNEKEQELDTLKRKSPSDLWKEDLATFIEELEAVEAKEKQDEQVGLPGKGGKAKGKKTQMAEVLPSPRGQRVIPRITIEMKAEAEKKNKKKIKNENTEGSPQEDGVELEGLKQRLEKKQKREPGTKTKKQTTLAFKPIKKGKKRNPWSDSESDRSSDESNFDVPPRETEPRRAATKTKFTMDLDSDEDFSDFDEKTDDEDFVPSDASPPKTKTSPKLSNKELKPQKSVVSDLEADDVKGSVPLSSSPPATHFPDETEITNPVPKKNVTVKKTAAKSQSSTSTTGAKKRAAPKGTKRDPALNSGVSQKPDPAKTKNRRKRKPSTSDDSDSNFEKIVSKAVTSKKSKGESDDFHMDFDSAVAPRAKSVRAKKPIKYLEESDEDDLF

[5] = test system: HL-60; assay: Cytotoxicity against human HL60 cells after 72 hrs by MTT assay; format: functional, cell-based; settings: HL-60, 72 h
[6] = target: T1, DNA topoisomerase 2-alpha; assay: Inhibition of human topoisomerase 2alpha kinetoplast DNA decatenation activity assessed as formation of monomeric circle from DNA at pH 8 after 1 hr
[7] = Inhibition of Escherichia coli DNA topoisomerase 1-mediated relaxation of supercoiled pBR322 DNA
[8] = test system: MCF7; assay: Cytotoxicity against human MCF7 cells after 72 hrs by MTT assay; format: functional, cell-based; settings: MCF7, 72 h
[9] = test system: Salmonella typhi; assay: Antibacterial activity against Salmonella typhi by agar dilution method; format: functional, Salmonella enterica subsp. enterica serovar Typhi; settings: Salmonella enterica
[10] = target: T2, DNA topoisomerase 1 (Homo sapiens, UniProt P11387); assay: (§1) Inhibition of human topoisomerase 1-mediated relaxation of supercoiled pBR322 DNA
T2 sequence (P11387 whole entry): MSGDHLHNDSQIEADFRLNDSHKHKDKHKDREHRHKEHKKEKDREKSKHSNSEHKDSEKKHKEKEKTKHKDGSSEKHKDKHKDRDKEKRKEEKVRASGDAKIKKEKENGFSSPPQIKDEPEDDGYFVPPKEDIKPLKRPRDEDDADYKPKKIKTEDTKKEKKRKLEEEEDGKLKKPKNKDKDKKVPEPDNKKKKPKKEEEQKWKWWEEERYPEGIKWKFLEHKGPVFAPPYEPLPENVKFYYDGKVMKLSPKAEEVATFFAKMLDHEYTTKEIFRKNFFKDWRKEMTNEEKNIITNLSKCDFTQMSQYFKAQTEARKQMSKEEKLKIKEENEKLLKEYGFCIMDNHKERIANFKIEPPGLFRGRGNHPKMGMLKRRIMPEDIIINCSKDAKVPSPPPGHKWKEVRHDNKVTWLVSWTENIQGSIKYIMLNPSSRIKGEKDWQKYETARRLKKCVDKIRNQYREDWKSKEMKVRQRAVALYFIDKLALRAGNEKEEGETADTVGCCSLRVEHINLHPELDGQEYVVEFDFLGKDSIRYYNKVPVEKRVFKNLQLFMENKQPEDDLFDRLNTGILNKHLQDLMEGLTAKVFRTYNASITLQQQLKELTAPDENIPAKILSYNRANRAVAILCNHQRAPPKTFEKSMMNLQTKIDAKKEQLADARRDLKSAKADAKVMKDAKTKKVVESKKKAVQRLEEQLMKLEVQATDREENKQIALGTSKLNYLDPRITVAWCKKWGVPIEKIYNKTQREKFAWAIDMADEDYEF

[11] = test system: Staphylococcus epidermidis; assay: Antibacterial activity against Staphylococcus epidermidis by agar dilution method; format: functional
[12] = Inhibition of Escherichia coli DNA topoisomerase 4-mediated relaxation of supercoiled pBR322 DNA
[13] = target: T3, DNA topoisomerase 1 (Homo sapiens) (UniProt P11387); assay: as §1
T3 sequence (whole entry): T2 sequence (P11387 whole entry)

SMILES	fold change (FC) [1]	inhibition [2]	Activity [3]	IC50 [4]	IC50 [5]	inhibition [6]	IC50 [7]	IC50 [8]	MIC [9]	IC50 [10]	MIC [11]	IC50 [12]	inhibition [4]	inhibition [13]
[O-]c1cc2c3c(c1)c1cc4c(cc1c[n+]3CC2)OCO4 [UNGEREMINE]	250	inactive	Active	25.8 µM	1.4 µM	Active	15 µM	> 40 µM	125 µg/mL (≈ 471 µM)	6.1 µM	31.2 µg/mL (≈ 118 µM)	7.3 µM		
O[C@H]1[C@H]2c3cc4c(cc3CN3CCC(=C[C@@H]1O)[C@H]23)OCO4			inactive										inactive	inactive
O[C@@H]1C=C[C@]23CCN(Cc4cc5c(cc42)OCO5)[C@H]3C1			inactive										inactive	inactive
